This note sets out measurements from article PMC6117091, “The C. difficile clnRAB operon initiates adaptations to the host environment in response to LL-37” (PLoS Pathogens, 2018).

In one assay the test system is C. difficile 630Δerm. Description: Minimum inhibitory concentration (MIC). It is filed as cell-based, Clostridioides difficile. The note with it: Mueller-Hinton Broth, 24 h, 37°C, anaerobic, ~5 x 10^5 CFU/ml. The procedure: (§1) Minimum inhibitory concentrations (MIC) were determined as previously described. […] Briefly, overnight cultures of C. difficile strains were diluted 1:50 in Mueller-Hinton Broth (Difco) and grown to OD600 of 0.45 (~5 x 10^7 CFU/ml). Cultures were then diluted 1:10 in MHB and seeded at a further 1:10 dilution in a round-bottom 96-well plate prepared with serial dilutions of antimicrobials for a starting concentration of ~5 x 10^5 CFU/ml. Plates were incubated for 24 h at 37°C in the anaerobic chamber.

In assay [1] the test system is C. difficile clnAB mutant (MC935). The experiment in a line: Minimum inhibitory concentration (MIC). The format is cell-based, Clostridioides difficile. To be noted: Mueller-Hinton Broth, 24 h, 37°C, anaerobic, ~5 x 10^5 CFU/ml. The procedure:
as §1

Assay [2] relates to C. difficile clnR mutant (MC885). Description: Minimum inhibitory concentration (MIC). The note with it: Mueller-Hinton Broth, 24 h, 37°C, anaerobic, ~5 x 10^5 CFU/ml. It is filed as cell-based, Clostridioides difficile. The procedure:
as §1

Assay [3] deals with clnR expression in C. difficile 630Δerm. Description: clnR expression by qRT-PCR after exposure to antimicrobials (induction specificity). The note with it: for Induction of clnR transcription (in words): concentrations of Table 1; for Relative clnR expression: BHIS, mean of three replicates ± SEM.
The target in assay [4] is LL-37 (human cathelicidin) (human).
[5] abbreviates: Clostridioides difficile, read-out: MIC.

Values after ≈ are worked out from the molar mass of the structure shown. Like-named read-outs stand apart in the source and are kept apart here. Where a SMILES comes first, the peptide text is derived from it. Bridges are numbered along the chain shown (N, C = ends). Where no end group is shown, it is not given here. [ ]: non-standard residue; d: D form. The star is where a group is joined. X1 = CC[C@H](C)CCCCC(=O)*; Dab = NCC[C@H](N)C(=O)O

For the compound `CN[C@H](CC(C)C)C(=O)N[C@H]1C(=O)N[C@@H](CC(N)=O)C(=O)N[C@H]2C(=O)N[C@H]3C(=O)N[C@H](C(=O)N[C@H](C(=O)O)c4cc(O)cc(O)c4-c4cc3ccc4O)[C@H](O)c3ccc(c(Cl)c3)Oc3cc2cc(c3O[C@@H]2O[C@H](CO)[C@@H](O)[C@H](O)[C@H]2O[C@H]2C[C@](C)(N)[C@H](O)[C@H](C)O2)Oc2ccc(cc2Cl)[C@H]1O` [Vancomycin, vancomycin], the MIC (in the assay on C. difficile 630Δerm (setting [5]); in assay [1] (setting [5]); in assay [2] (setting [5])) was 1 µg/mL (≈ 0.69 µM) each time. In assay [3], the “Induction of clnR transcription (in words)” value (shortened to “Induction”) was “none of the other cell-surface-active antimicrobials tested”.

Consider `CC[C@H](C)CCCCC(=O)N[C@@H](CCN)C(=O)N[C@H](C(=O)N[C@@H](CCN)C(=O)N[C@H]1CCNC(=O)[C@H]([C@@H](C)O)NC(=O)[C@H](CCN)NC(=O)[C@H](CCN)NC(=O)[C@H](CC(C)C)NC(=O)[C@@H](Cc2ccccc2)NC(=O)[C@H](CCN)NC1=O)[C@@H](C)O` [Polymyxin B, polymyxin B] (X1-[Dab]T[Dab][Dab][Dab][dF]L[Dab][Dab]T; lactam 4-C (inferred); N-terminus assumed), for which the MIC (with C. difficile 630Δerm; in assay [1]; in assay [2]) was 500 µg/mL (≈ 415 µM) throughout. Also, the “Relative clnR expression” value in assay [3] (200 μg/ml, normalized to 630Δerm without antimicrobials) came to 1.2 ± 0.2. Besides, the “Induction” value in assay [3] is recorded as “none of the other cell-surface-active antimicrobials tested”.

As to “nisin (ITSISLCTPGCKTGALMGCNMKTATCHCSIHVSK; also: lantibiotic, modified residues and rings not given here; UniProt P13068 24-57, looked up)”, the MIC (in the assay with C. difficile 630Δerm; in assay [1]; in assay [2]) was 360 µg/mL each time. Moreover, the “Relative clnR expression” value in assay [3] (7.5 μg/ml, normalized to 630Δerm without antimicrobials) is 1.1 ± 0.4. In addition, the “Induction” value in assay [3] is given as “none of the other cell-surface-active antimicrobials tested”.

With “Recombinant N-terminally His-tagged ClnR (natural protein)”, the Kd (commonly the equilibrium constant for the complex coming apart) in assay [4] was 83 nM.

For the compound Lysozyme, the “Relative clnR expression” value in assay [3] (1 mg/ml, normalized to 630Δerm without antimicrobials) came out at 1.1 ± 0.3. In assay [3], the “Induction” value is “none of the other cell-surface-active antimicrobials tested”.

`CC1(C)S[C@@H]2[C@H](NC(=O)[C@H](N)c3ccccc3)C(=O)N2[C@H]1C(=O)O` [Ampicillin, ampicillin]: the MIC (with C. difficile 630Δerm (setting [5]); in assay [1] (setting [5]); in assay [2] (setting [5])) was 4 µg/mL (≈ 11.4 µM) each time. Besides, the “Induction” value in assay [3] is “none of the other cell-surface-active antimicrobials tested”.

Take mCRAMP: in assay [3] (2 μg/ml, normalized to 630Δerm in BHIS without antimicrobials), the “Relative clnR expression” value amounted to 111.4 ± 27.3. In assay [3], the “Induction” value is recorded as “also induced”.
